In article PMC6508677, “Identification of druggable small molecule antagonists of the Plasmodium falciparum hexose transporter PfHT and assessment of ligand access to the glucose permeation pathway via FLAG-mediated protein engineering” (PLoS ONE, 2019):
Values joined by “and” are separate entries in the source; they are usually repeats but may differ in a detail not shown here. Identical values can stand only once. Like-named read-outs stand apart in the source and are kept apart here.

Target: T1, PfHT (Plasmodium falciparum, UniProt Q7KWJ5)
T1 sequence (Q7KWJ5 1-504): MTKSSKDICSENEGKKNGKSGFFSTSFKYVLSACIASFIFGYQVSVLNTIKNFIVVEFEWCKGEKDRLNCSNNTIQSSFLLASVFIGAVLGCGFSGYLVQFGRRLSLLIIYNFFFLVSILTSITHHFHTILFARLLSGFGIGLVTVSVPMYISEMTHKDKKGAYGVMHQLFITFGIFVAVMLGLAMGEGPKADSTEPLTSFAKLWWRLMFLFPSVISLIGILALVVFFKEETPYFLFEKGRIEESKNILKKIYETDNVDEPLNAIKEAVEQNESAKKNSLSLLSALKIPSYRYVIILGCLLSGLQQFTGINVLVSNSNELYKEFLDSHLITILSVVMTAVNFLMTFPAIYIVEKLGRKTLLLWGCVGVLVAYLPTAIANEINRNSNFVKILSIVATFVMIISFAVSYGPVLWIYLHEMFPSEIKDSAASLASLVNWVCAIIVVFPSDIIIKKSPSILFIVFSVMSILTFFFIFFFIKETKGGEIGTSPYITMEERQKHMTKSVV
Test: 2-DG uptake by HEK293 cells overexpressing PfHT
Format: cell-based
Design: expressed in transfected cells; host or cells: HEK293 (HEK293-FLIP, native hGLUT1 knocked down by shRNA)
Details: for Maximum Inhibition (%): 2-DG uptake, PfHT cell line; for remaining activity at 0.001 µM / remaining activity at 0.09375 µM / remaining activity at 0.1875 µM / remaining activity at 0.3125 µM / remaining activity at 0.375 µM / remaining activity at 0.625 µM / remaining activity at 0.75 µM / remaining activity at 1.25 µM / remaining activity at 2.5 µM / remaining activity at 5 µM / remaining activity at 10 µM / remaining activity at 20 µM / remaining activity at 40 µM / remaining activity at 80 µM / remaining activity at 160 µM / remaining activity at 225 µM / inhibition at 5 µM: HEK293, 4 min; for inhibition at 5 µM: read-out: % Inhibition of 2-DG uptake vs vehicle
Text: Generation of HEK293 cells overexpressing PfHT and human GLUTs 1–4 were described elsewhere. Briefly, HEK293 cells were transfected with pcDNA3.1 FLII12Pglu-7006 (Addgene), containing the fluorescence resonance energy transfer (FRET) glucose sensor (HEK293-FLIP) and PfHT, human GLUT1 (hGLUT1), hGLUT2, hGLUT3, hGLUT4, hGLUT5 or hGLUT8 using Optifect (Life Technologies) according to manufacturer’s specifications. To increase retention of GLUT8 at the plasma membrane, the dileucine sorting signal E^7E^8XXXLL was modified to R^7R^8XXXLL as described in [17]. Stable transfectants were selected for G418 and hygromycin resistance to select for FRET sensor and hexose transporter, respectively. HEK293-FLIP cells were also used to generate cells stably transfected with FLAG-tagged PfHT (FTPfHT). FLAG tag ([…]) followed by a triple glycine linker and a tobacco etch virus (TEV) protease site (ENLYFQS) followed by a triple glycine linker was added to the N-terminus of PfHT via PCR [18] using Phusion Hot Start II High-Fidelity DNA Polymerase (Fisher Scientific). Single clones were selected by comparing their abilities to transport glucose as assayed via FRET and radiolabeled hexose uptake. In all cell lines, except for HEK293 cells overexpressing hGLUT1 and hGLUT5, native hGLUT1 was knocked down using shRNA as described elsewhere. Transcript levels of the individual GLUTs expressed in each cell line are as described in [13, 15] and in S1 Fig.
Glucose uptake by P. falciparum was performed essentially as described. P. falciparum strain 3D7 was cultured in 100 mm tissue culture dishes (Techno Plastic Products) in a 2% suspension of human erythrocytes and RPMI 1640 medium until reaching > 7.5% parasitemia. Cells were pelleted via centrifugation and resuspended in RPMI 1640 medium. To determine the uptake of radiolabeled glucose into the parasite, parasites were isolated from infected erythrocytes by permeablization with saponin (0.05 w/v), followed by centrifugation, aspiration of supernatant and washing of the pellet 3X with saline solution (135 mM NaCl, 2 mM KCl, 25 mM HEPES, 0.2 mM glucose and 1 mM MgCl2; pH 7.1) to remove cellular debris. WU-1 or DMSO vehicle were added to 100 μl parasites (resuspended in saline) 5 min prior to the addition of 100 μl [^14C]2-DOG (0.2- μCi/ml final concentration). 2-DG uptake was stopped after 2 min by layering the entire reaction over 300 μl of an oil mixture (5:4 mix of dibutyl phthalate / dinonyl phthalate) in Eppendorf tubes and centrifuged at 15,850 × g for 2 mins. The ratio of the estimated intracellular concentration of radiolabel relative to the extracellular concentration were calculated as described. Uptake of radiolabeled hexose into HEK293 cells was measured in glucose-free HBSS as described previously. Briefly, cells were plated at 400,000 cells/well overnight at 37°C in 24-well plates pre-treated with PEI. After 30-min incubation at 37°C in glucose-free HBSS in the presence of vehicle or increasing concentrations of compound, 2-DG uptake was measured in glucose-free HBSS for 4 min at 37°C. Cultures were washed in ice-cold 1X PBS and lysed in 0.1% Triton X-100 in 1X PBS. Radiolabeled hexose uptake was determined by liquid scintillation counting (Ultima Gold, Thermo Fisher) and normalized to total protein per well. Uptake data are plotted as percent uptake relative to vehicle-treated cells. Kinetic analyses were performed using the indicated concentrations of substrate and WU-1, with quenching of uptake after 1 min incubation. Incubation times had been previously determined as being in the linear range of time-dependent radiolabeled hexose uptake (2 min for 2-DG uptake into freed parasites; 2 and 4 min for D-Frc and 2-DG uptake HEK cell lines, respectively). Data were fit by least squares nonlinear regression analysis using GraphPad Prism 6.0 software.

[1] = read-out: 2-DG uptake (percent uptake relative to vehicle), AVE, PfHT, 0.001 µM compound
[2] = read-out: 2-DG uptake (percent uptake relative to vehicle), AVE, PfHT, 0.09375 µM compound
[3] = read-out: 2-DG uptake (percent uptake relative to vehicle), AVE, PfHT, 0.1875 µM compound
[4] = read-out: 2-DG uptake (percent uptake relative to vehicle), AVE, PfHT, 0.3125 µM compound (0.313 in Fig 1 sheet for WU-1)
[5] = read-out: 2-DG uptake (percent uptake relative to vehicle), AVE, PfHT, 0.375 µM compound
[6] = read-out: 2-DG uptake (percent uptake relative to vehicle), AVE, PfHT, 0.625 µM compound
[7] = read-out: 2-DG uptake (percent uptake relative to vehicle), AVE, PfHT, 1.25 µM compound
[8] = read-out: 2-DG uptake (percent uptake relative to vehicle), AVE, PfHT, 2.5 µM compound
[9] = read-out: 2-DG uptake (percent uptake relative to vehicle), AVE, PfHT, 5 µM compound
[10] = read-out: 2-DG uptake (percent uptake relative to vehicle), AVE, PfHT, 10 µM compound
[11] = read-out: 2-DG uptake (percent uptake relative to vehicle), AVE, PfHT, 20 µM compound
[12] = read-out: 2-DG uptake (percent uptake relative to vehicle), AVE, PfHT, 40 µM compound
[13] = IC50 for inhibition of 2-DG uptake, HEK293 cells overexpressing PfHT, mean/reported value
[14] = IC50 for inhibition of 2-DG uptake, individual experiments, HEK293 PfHT, Expt 1-3

With `Cc1ccc(S(=O)(=O)CCNC(=O)c2c(-c3c(Cl)cccc3Cl)noc2C)cc1` [WU-1, 3-(2,6-dichlorophenyl)-5-methyl-N-[2-(4-methylbenzenesulfonyl)ethyl]-1,2-oxazole-4-carboxamide] the “Maximum Inhibition (%)” value was 93.2%, the remaining activity at 0.001 µM (read-out: 2-DG Uptake AVE, PfHT, concentration 0.001 µM, Expt 1-3) was 100% and the remaining activity at 0.09375 µM (read-out: 2-DG Uptake AVE, PfHT, concentration 0.09375 µM) was 91.6%. The remaining activity at 0.1875 µM (read-out: 2-DG Uptake AVE, PfHT, concentration 0.1875 µM) was 88.9%, the remaining activity at 0.3125 µM (read-out: 2-DG Uptake AVE, PfHT, concentration 0.3125 µM) was 90.1% and the remaining activity at 0.375 µM (read-out: 2-DG Uptake AVE, PfHT, concentration 0.375 µM) was 85.8%. The remaining activity at 0.625 µM (read-out: 2-DG Uptake AVE, PfHT, concentration 0.625 µM) was 85.2%, the remaining activity at 0.75 µM (read-out: 2-DG Uptake AVE, PfHT, concentration 0.75 µM) was 76.1% and the remaining activity at 1.25 µM (read-out: 2-DG Uptake AVE, PfHT, concentration 1.25 µM) was 64.5%. The remaining activity at 2.5 µM (read-out: 2-DG Uptake AVE, PfHT, concentration 2.5 µM) was 70.2%, the remaining activity at 5 µM (read-out: 2-DG Uptake AVE, PfHT, concentration 5 µM) was 49.8% and the remaining activity at 10 µM (read-out: 2-DG Uptake AVE, PfHT, concentration 10 µM) was 34.7%. For the same compound, the remaining activity at 20 µM (read-out: 2-DG Uptake AVE, PfHT, concentration 20 µM) was 21.1%, the remaining activity at 40 µM (read-out: 2-DG Uptake AVE, PfHT, concentration 40 µM) was 20.4% and the remaining activity at 80 µM (read-out: 2-DG Uptake AVE, PfHT, concentration 80 µM) was 8.82%. For the same compound, the remaining activity at 160 µM (read-out: 2-DG Uptake AVE, PfHT, concentration 160 µM) was 5.63%, the remaining activity at 225 µM (read-out: 2-DG Uptake AVE, PfHT, concentration 225 µM) was 5.69% and the remaining activity at 0.001 µM [1] was 100%. For the same compound, the remaining activity at 0.09375 µM [2] was 91.6%, the remaining activity at 0.1875 µM [3] was 88.9% and the remaining activity at 0.3125 µM [4] was 90.2%. It also gave a remaining activity at 0.375 µM [5] of 85.8%, a remaining activity at 0.625 µM [6] of 85.3% and a remaining activity at 0.75 µM (read-out: 2-DG uptake (percent uptake relative to vehicle), AVE, PfHT, 0.75 µM compound) of 76.1%. The remaining activity at 1.25 µM [7] was 80.1%, the remaining activity at 2.5 µM [8] was 68.2% and the remaining activity at 5 µM [9] was 53.2%. For the same compound, the remaining activity at 10 µM [10] was 42.3%, the remaining activity at 20 µM [11] was 30.2% and the remaining activity at 40 µM [12] was 18.7%. The remaining activity at 80 µM (read-out: 2-DG uptake (percent uptake relative to vehicle), AVE, PfHT, 80 µM compound) was 9.91%, the remaining activity at 160 µM (read-out: 2-DG uptake (percent uptake relative to vehicle), AVE, PfHT, 160 µM compound) was 5.69% and the remaining activity at 225 µM (read-out: 2-DG uptake (percent uptake relative to vehicle), AVE, PfHT, 225 µM compound) was 6.88%. For the same compound, the inhibition at 5 µM was 50.2%, the IC50 (IC50 (µM), PfHT, 2-DG Uptake, single experiments Expt 1-3) was 4.6 µM and 6.6 µM and 6.34 µM and the IC50 [13] was 5.8 µM and 5.85 µM. For the same compound, the IC50 [14] was 4.6 µM and 6.6 µM and 6.34 µM, the “2-DG uptake (percent uptake relative to vehicle), AVE” value (PfHT, 0.001 µM compound) was 100.00 and the “2-DG Uptake AVE” value (PfHT, concentration 0.001 µM, Expt 1-3) was 100.00. For the same compound, the “Selectivity Index, 2-DG, PfHT line itself” value (reference value) was 1.0.
In the case of `COc1c(Br)cc([N+](=O)[O-])c(OC)c1C(=O)NC(=O)Nc1c(C)cccc1Cl` [WU-2, 3-(3-bromo-2,6-dimethoxy-5-nitrobenzoyl)-1-(2-chloro-6-methylphenyl)urea], the “Maximum Inhibition (%)” value is reported as 84.4%, the remaining activity at 0.001 µM [1] is reported as 97.7% and the remaining activity at 0.09375 µM [2] is reported as 96%. For the same compound, the remaining activity at 0.1875 µM [3] was 93.9%, the remaining activity at 0.3125 µM [4] was 85% and the remaining activity at 0.375 µM [5] was 79.7%. It also gave a remaining activity at 0.625 µM [6] of 75.7%, a remaining activity at 1.25 µM [7] of 68.5% and a remaining activity at 2.5 µM [8] of 62.4%. For the same compound, the remaining activity at 5 µM [9] was 50.6%, the remaining activity at 10 µM [10] was 39.9% and the remaining activity at 20 µM [11] was 26.3%. For the same compound, the remaining activity at 40 µM [12] was 17.3%, the inhibition at 5 µM was 47.9% and the IC50 [13] was 4.2 µM and 4.15 µM. For the same compound, the IC50 [14] was 3.01 µM and 3.83 µM and 5.61 µM.
